Experimental findings from US7062219B2, “Protein fragment complementation assays for high-throughput and high-content screening” (Odyssey Thera Inc., priority 1997, dated 2006) are described below.

Entries after “also recorded” stand apart in the source; their conditions may differ. Non-standard residues stand in square brackets, D forms with d. Residues, ends and D or L forms follow the SMILES beside them. Nle = CCCC[C@H](N)C(=O)O

Assay type in all cases: cell-based
One assay has as its system IkBa/Ubiquitin complexes. The assay is described as follows: IkBa/ubiquitin YFP PCA in HEK293T cells. The following applies: TNF induced HEK293T cells, ALLN versus vehicle. The procedure:
IkBa-YFP[1] and YFP[2]-ubiquitin were constructed as described above and transiently expressed in HEK293T cells. […] The present invention can be applied to the large-scale identification of proteins modified by ubiquitin and ubiquitin-like polypeptides; for example, using library screening as in Example 2 of the present invention where the ‘bait’ is ubiquitin or a ubiquitin-like molecule, or by using interaction mapping as in Example 4 where ubiquitin or a ubiquitin-like molecule is tested against individual cDNAs to identify ubiquitin-protein complexes. In addition, by constructing ubiquitin PCAs for specific protein targets, the assays that are the subject of the present invention can immediately be applied to high-throughput screening for novel therapeutic agents.

The next assay deals with p50/p65 complex. The experiment in a line: stable HEK293T p50/p65 YFP PCA cell line, nuclear translocation (N:C ratio). The procedure: Stable cell lines represent the gold standard for HTS since the assays can be reconstructed at any time from frozen stocks of cells. […] First, cells were co-transfected with YFP[2]-p65 encoding vectors, and stable cell lines were selected using 100 micrograms/ml of Hygromycin B (Invitrogen). Selected cell lines were then transfected with YFP[1]-p50. Stable cell lines expressing YFP[1]-p50/YFP[2]-p65 were isolated following double antibiotic selection with 50 μg/ml Hygromycin B and 500 μg/ml Zeocin. Cell clones stably expressing the fusion genes were identified by immunoblot analysis and fluorescence microscopy. A single cell line of each transfectant was selected for further characterization. Fluorescence of these lines is stable over at least 25 passages (data not shown). A stable, MEK/ERK cell line—constructed as described below—was used as a control for TNF effects. Fugene 6 (Roche) was used for all the transfections according to manufacturer's directions. Cells stably expressing YFP[1]-p50/YFP[2]-p65 were seeded at 20,000 cells/well in black-walled poly-lysine coated 96 well plate (Greiner). Twenty-four hours later, the cells were incubated with human TNF-alpha (Roche) for 30 min. Nuclei were stained with Hoechst 33342 (Molecular Probes) at 10 micrograms/ml for 10 min. Cells were rinsed with HBSS (Invitrogen) and kept in the same buffer. Fluorescence was visualized and images were acquired using a Discovery-1 automated fluorescence imager (Molecular Devices, Inc.) equipped with excitation and emission filters 470/35 and 535/60, respectively. […] For the high throughput screening campaign described below, cells were pretreated with compounds (10 micromolar) for 60 minutes and then stimulated with TNFalpha for 30 minutes in the presence of drugs. Cells were then fixed with 2% formaldehyde in HBSS and subsequently stained with Hoechst 33342. All liquid handling was done using a Biomek FX (Beckman) instrument and images were acquired as described above. Images were analyzed using Image J. Translocation is assessed by calculating the nuclear/cytoplasmic ratio of the mean fluorescence intensity for a population of cells (denoted as n) over several images for a given condition.
Genesis Plus is a collection of 960 diverse compounds, and includes compounds with known toxicity or fluorescent properties. Inclusion of compounds with such properties is important in HTS assay validation, as they might complicate analysis. The final concentration of compounds in wells was 10 micromolar, and all wells contained 0.5% DMSO concentration. […] Following fixation and staining of nuclei, fluorescence was analyzed on the automated fluorescent microscopy platform (Discovery 1; Universal Imaging/Molecular Devices Corp.). […]

The next assay deals with IkBa/p65 complex. The assay is described as follows: stable cell line IkBa/p65 YFP PCA, mean fluorescence intensity. The text has this:
TNF-induced degradation of IkBa, which is a consequence of ubiquitination and proteasomal degradation, frees bound NFkB and results in translocation of that transcription factor into the nucleus. Thus, disassembly of the IkBa-NFkB complex is a key step in NFkB-mediated gene regulation. To visualize regulation of the NFkB pathway at this level, we engineered a stable cell line expressing an IkBa/p65 PCA (FIG. 14). ERK1/MEK1 was used as a control. ERK1 was ligated to the 5′ end of YFP[1] while IkBa and MEK1 were appended to YFP[2] in N-terminal fusions. […]
Cells expressing IkBa-YFP[1]/YFP[2]-p65 or the controls, MEK-YFP[2]/ERK1-YFP[1], were seeded at 20,000 cells/well in black-walled poly-lysine coated 96 well plate (Greiner). […] Fluorescence was visualized and images were acquired using a Discovery-1 automated fluorescence imager (Molecular Devices, Inc.) equipped with excitation and emission filters 470/35 and 535/60, respectively. […]
Images were analyzed using Image J. Total mean fluorescence intensity for all cells was assessed by adding weighted mean fluorescence intensities for the nucleus and cytoplasm for individual cells in the population for a given condition +/− standard error. […] There was no effect of TNF treatment on the fluorescence intensity of the control (MEK/ERK) PCA.

`CCCC[C@@H](C=O)NC(=O)[C@H](CC(C)C)NC(=O)[C@H](CC(C)C)NC(C)=O` [ALLN] (Ac-Leu-Leu-[Nle]-aldehyde): the “mean fluorescence intensity of ubiquitin-IkBa complexes” value with IkBa/Ubiquitin complexes is “increases the accumulation; also recorded: significantly increased”. Also, the “block of TNF-induced increases in the N:C ratio of p50/p65 complexes” value in the assay with p50/p65 complex (ALLN treatment for 4 hr) worked out at 76%. Further, in the assay on p50/p65 complex (FIG. 12(B)), the “effect on the TNF response in the stable p65/p50 PCA cell line (in words)” value was “inhibition of the TNF response”. Besides, the “inhibition of the TNF-induced reduction of IkBa/p65 complexes” value with IkBa/p65 complex (ALLN treatment for 4 hr) was determined as 98%. For the same compound, the “effect on TNF-induced reduction in IkBa/p65 signal (in words)” value with IkBa/p65 complex (FIG. 14) is recorded as “blocked”.
